In article PMC10986499, “Unravelling HetC as a peptidase-based ABC exporter driving functional cell differentiation in the cyanobacterium Nostoc PCC 7120” (Microbiology Spectrum, 2024):

Legend:
HetC [1] = molecular target: T1, HetC (Nostoc sp. PCC 7120 = FACHB-418, UniProt A0ACD7RTN5); test: ITC (triplicate), supported by nanoDSF shift (ΔTm […] °C at […]); format: binding
T1 construct: HetCNTD, N-terminal domain (first 480 residues)

HetC [2] = molecular target: T2, HetC (Nostoc sp. PCC 7120 = FACHB-418, UniProt A0ACD7RTN5); test: chromogenic peptidase assay at […] nm with purified HetCNTD, […] substrate; format: biochemical
T2 construct: HetCNTD, N-terminal domain (first 480 residues; includes C39 peptidase domain), hexa-his tagged
T2 sequence (A0ACD7RTN5 1-480): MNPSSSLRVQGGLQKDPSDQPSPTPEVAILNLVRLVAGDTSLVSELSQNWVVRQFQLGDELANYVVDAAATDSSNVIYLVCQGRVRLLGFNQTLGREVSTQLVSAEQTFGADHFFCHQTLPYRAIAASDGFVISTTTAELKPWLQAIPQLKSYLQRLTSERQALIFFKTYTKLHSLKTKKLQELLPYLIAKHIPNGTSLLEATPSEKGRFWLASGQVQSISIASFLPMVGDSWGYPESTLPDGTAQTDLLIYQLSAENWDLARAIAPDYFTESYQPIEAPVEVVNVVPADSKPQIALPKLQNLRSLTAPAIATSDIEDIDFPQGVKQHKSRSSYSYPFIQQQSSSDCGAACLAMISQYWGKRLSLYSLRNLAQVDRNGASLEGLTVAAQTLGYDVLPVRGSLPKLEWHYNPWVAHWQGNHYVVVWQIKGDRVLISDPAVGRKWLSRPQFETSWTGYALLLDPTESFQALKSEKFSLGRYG

Structure (SMILES): Nc1nc2c(ncn2[C@@H]2O[C@H](COP(=O)(O)OP(=O)(O)O)[C@@H](OP(=O)(O)OP(=O)(O)O)[C@H]2O)c(=O)[nH]1 [ppGpp]
- Kd (HetC [1]): ~59 µM

Structure (SMILES): N=C(N)NCCC[C@H](N)C(=O)Nc1ccc([N+](=O)[O-])cc1 [L-Arginine p-nitroanilide]
- chromogenic peptidase assay at 405 nm with purified HetCNTD, 1 mM substrate (HetC [2]): 0.22 ± 0.08 pmol/min/µg of protein
